This note sets out measurements from patent US5486528A, “Basic ethers and process for the preparation thereof” (Egis Gyogyszergyar Rt., priority 1993, dated 1996).

One data set concerns the target T1, H^+ /K^+ -ATP-ase (Sus scrofa, UniProt P19156).
T1 construct: on partially purified pig's microsome specimen; from tissue; host or cells: pig stomach, partially purified microsomes
In words: H+/K+-ATP-ase inhibition on partially purified pig's microsome specimen. Type of data set: biochemical. How it is done:
1. H^+ /K^+ -ATP-ase inhibition on pig's stomach
The test was carried out according to the method of Rabon and Sachs [E. C. Rabon et al.: Preparation of gastric H^+ K^+ -ATP-ase, Methods in Enzymology, 157, 649-651 (1988)]. The activity of the prepared enzyme was measured both in the presence as in the absence of K^+ ions. The difference in the libaration of phosphorus representing the activity of the enzyme was measured.

Data set [1] concerns Male Wistar rats. The data set is described as follows: Conditioned avoidance response inhibition, antipsychotic effect. In kind it is in vivo, rat (Wistar). Conditions: rat; for Inhibition of the conditioned reflex (%): 30 mg/kg p.o., ++ = p < 0.05. How it is done:
Conditioned avoidance response inhibition
The antipsychotic (neuroleptic) effect was measured by the inhibition of the learned conditioned avoidance reflex. The male Wistar rats, used for the study, were of 120-150 g body weight at the commencement of learning. A shuttle box was used as experimental device; it consists of two parts, 24×24.5×23 cm each, separated by a wall with a 6×9 cm gate. In response to a sutiable warning stimulus, in order to avoid the punishing (unconditioned) stimulus, animals within the box passed through the gate from one part to the other. The warning, i.e. conditioned stimulus (CS), a white light (1 Hz) blinking for 15 seconds, was applied at the place of the actual animal existence. The unconditioned stimulus (US), in form of 0.6 mA intensity electric shock, was randomly applied to the paw during the last 5 seconds of the conditioned stimulus. The animal's movement during the CS and US from one part of the box to the other, was defined as avoidance and escape responses, respectively. Both responses ceased the actual stimulus and stopped the trial. The time elapsed until the next trial (intertrial interval, ITI) was 15 seconds. While one experiment was carried out daily, an experiment consisted of 80 trials. Learning efficiency was expressed as percentage of the successful to the total avoidances. Effect of the neuroleptic drugs was examined in animals with stabilized conditioned reflexes and with at least 75% learning efficiency. Dosing was carried out once a week, one hour before the measurement in the shuttle box. To calculate the neuroleptic effect (50% inhibiting dose, ID50) , results obtained after the treatment were compared to those obtained on the previous day (controls).

For another data set, the system named is gastric-acid secretion. In words: Gastric-acid-secretion test (Shay). In kind it is in vivo, rat. Conditions: po; rat, p.o., 4 hours after ligature; read-out: Acid-secretion inhibition, ED50. On the procedure:
2. […] The liberated gastric-acid content was determined by titration 4 hours after the ligature of the duodenum.

A further data set relates to mice. The data set is described as follows: Effect on the spontaneous motor activity (Borsy), sedative effect. Type of data set: in vivo, mouse. Conditions: Mus musculus, po, 0.5 h; mice, orally, 30 minutes; read-out: ID50, spontaneous motor activity. On the procedure:
2.1. Effect on the spontaneous motor activity
The test was carried out according to the method of Borsy et al. Groups consisting of 3 mice each were treated orally with different doses of the compounds to be tested. Then the test animals were placed into a 10-channel Dews system equipment. In this equipment the number of interruptions of infrared beam within 30 minutes was counted. […] Int. Pharmacodyn. 124, 1 (1960)].

In a further data set the test system is rat's parietal cell. In words: 14C-aminopyrine accumulation by parietal cells. Conditions: stimulated rat parietal cells; read-out: ED50, inhibition of aminopyrine accumulation. Type of data set: cell-based, rat (Wistar). How it is done:
4. Measurement of ^14 C-aminopyrine accumulation by parietal cells
Gastric mucosal cells were prepared from rat stomach. Wistar rats (130-160 g) were killed by decapitation, the stomachs were rapidly excised and their contents were washed out with saline. The stomachs were then everted and filled with 2.5 mg/ml of pronase containing buffer. These sacs were incubated for 60 minutes at 37° C. in carbogen gassed medium. This incubation was followed by gentle stirring at room temperature for 45 minutes by a magnetic stirrer in order to disperse the cells from the mucosa of the everted stomachs digested only from the serosal side. The viability of the cells was determined by trypan-blue exclusion test. The percentage of the parietal cells was determined on the basis of their morphological characteristics.
Acid production of the cells prepared in this way could be induced by cyclic AMP, histamine (in the presence of 3-isobutyl-1-methylxanthine) or carbachol. The acid production was assessed by measuring the accumulation of ^14 C-aminopyrine. The undissociated weak base can penetrate into the acid-containing compartments of the cells. […] Thus, the distribution of ^14 C-aminopyrine between the extracellular and intracellular spaces is an indirect quantitative index for the cellular acid production [W. Schepp, J. Schmidtler, C. […]

Data set [2] in a line: Acute toxicity on mice (Litchfield and Wilcoxon). Conditions: mouse, in vivo, po. On the procedure: The test was carried out according to the method of Litchfield and Wilcoxon [Litchfield, J. T. and Wilcoxon, F. W.: J. Pharmacol. Exp. Ther., 96, 99 (1949)] by using white mice belonging to the CFLP strain and weighing 10 to 22 g, 10 animals per dose. The test compounds were administered orally in a volume of 20 cm^3 /kg.

A short description of data set [3]: Acute toxicity on mice (Litchfield and Wilcoxon). As to conditions: mouse, in vivo, ip.
Data set [4] has as its system Male Wistar rats. In words: Vogel test (drinking conflict test), anxiolytic effect. In kind it is in vivo, rat (Wistar). As to conditions: for minimal effective dose: ip, 0.5 h, rat, intraperitoneally, half an hour before testing, read-out: MED (minimum effective dose), Vogel test; for anxiolytic activity (in words): Vogel test, compared with Meprobamate or within the group. How it is done:
1.1. Vogel test (drinking conflict test)
The anxiolytic effect was tested by using the method of Vogel et al. Male Wistar rats of 160 to 180 g body weight were kept free of food and drinking water for 24 and 48 hours, respectively. Test and carrier substances were administered intraperitoneally half an hour before testing. Animals within the experimental chamber were provided with drinking water through an inserted tube. After the animals' each twenty lapping for water the device emitted a 2 mA intensity electric shock through the drinking tube. During 5 minutes the shocks tolerated by the animals in order to quench their thirst were counted. The effect of treatment was expressed as the % increase of the tolerated shocks. The minimum effective dose (MED) was determined for each test compound [Volge, J. R., Beer, B., Clody, D. E.: Psychopharmacologia (Berl.) 21, 1 (1971)].

For data set [5], the system named is erosion of the stomach wall. The data set is described as follows: Cytoprotective effect, ethanol erosion (Robert). Type of data set: in vivo. As to conditions: rat; for ED50: po, 1 cm^3 abs. ethanol; for Ratio of acid-secretion inhibition and erosion inhibition: ratio of ED50 values, p.o. How it is done:
3. The cytoprotective effect was determined according to the method of Robert [Robert, A.: Cytoprotection by prostaglandins. […] Rats weighing 200 to 250 g were used as test animals. 1 cm^3 of abs. ethanol was introduced to the stomach to produce an erosion of the stomach wall. The length and frequency of the lesions (erosion index and frequency) were measured and the percentage inhibition of lesion formation compared with vehicle-treated animals was calculated.

Data set [6] has as its system Male rats (Sprague Dawley). The data set is described as follows: Elevated plus maze test on rat, anxiolytic effect. Type of data set: in vivo, rat (Sprague Dawley). As to conditions: po, 1 h, p.o., pretreatment 60 minutes, read-out: MED (minimum effective dose), elevated plus maze. How it is done:
1.2. Elevated plus maze test on rat
The test was carried out with the aid of a wooden plus-shaped maze elevated to a height of 50 cm. Two arms--opposite to one another--were enclosed up to a height of 40 cm along their longer sides and at the end. The other two arms were without walls (open arms). The central 15×15 cm part was open. Male rats belonging to the Sprague Dawley strain and weighing 220 to 260 g were used as test animals. After pretreatment lasting 60 minutes the animals were placed into the central part of the maze. During the 5 minutes observation period the following parameters were recorded: […]
time spent on the open arms time spent on the closed arms number of open arm entries number of closed arm entries
The drug effect was expressed as percent increase of the time spent on the open arms and number of open arm entries. The minimum effective dose which caused a significant increase of the time spent on the open arms was calculated for every substance [Pelow, S., Chopin, P., File, S. E., Briley, M.: J. Neurosci. Methods 14, 149-167 (1985)].

Where only a bound is given, the exact number is not on record here.

T1 sequence (P19156 2-1034 limits assumed): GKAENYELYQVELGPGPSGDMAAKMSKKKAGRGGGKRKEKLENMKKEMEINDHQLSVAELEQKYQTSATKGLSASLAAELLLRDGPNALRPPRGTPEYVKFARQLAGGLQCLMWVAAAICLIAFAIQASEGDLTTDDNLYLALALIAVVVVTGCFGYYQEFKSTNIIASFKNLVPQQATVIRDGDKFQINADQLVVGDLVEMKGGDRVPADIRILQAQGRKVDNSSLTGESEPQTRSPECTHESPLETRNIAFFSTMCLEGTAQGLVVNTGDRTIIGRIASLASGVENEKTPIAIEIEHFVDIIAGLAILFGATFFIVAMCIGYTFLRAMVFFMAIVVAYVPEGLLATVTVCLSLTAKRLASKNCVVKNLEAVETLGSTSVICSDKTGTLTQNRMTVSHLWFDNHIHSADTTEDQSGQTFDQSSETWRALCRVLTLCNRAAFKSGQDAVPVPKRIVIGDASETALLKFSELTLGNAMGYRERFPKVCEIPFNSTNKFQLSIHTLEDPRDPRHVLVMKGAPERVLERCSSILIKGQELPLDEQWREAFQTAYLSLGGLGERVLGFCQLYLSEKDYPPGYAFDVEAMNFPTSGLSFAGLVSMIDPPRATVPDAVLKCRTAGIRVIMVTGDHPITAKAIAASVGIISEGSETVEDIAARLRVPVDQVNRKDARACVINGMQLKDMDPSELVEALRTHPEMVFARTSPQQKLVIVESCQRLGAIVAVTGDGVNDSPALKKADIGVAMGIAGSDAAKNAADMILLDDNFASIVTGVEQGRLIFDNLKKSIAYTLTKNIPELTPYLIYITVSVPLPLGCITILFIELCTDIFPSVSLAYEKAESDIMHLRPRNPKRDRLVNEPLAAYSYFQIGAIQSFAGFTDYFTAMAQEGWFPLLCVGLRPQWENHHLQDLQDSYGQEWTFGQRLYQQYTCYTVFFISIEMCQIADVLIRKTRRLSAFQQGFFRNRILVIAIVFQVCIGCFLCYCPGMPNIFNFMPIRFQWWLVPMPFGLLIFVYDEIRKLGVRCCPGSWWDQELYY
T1 sequence (P18434 whole entry partner): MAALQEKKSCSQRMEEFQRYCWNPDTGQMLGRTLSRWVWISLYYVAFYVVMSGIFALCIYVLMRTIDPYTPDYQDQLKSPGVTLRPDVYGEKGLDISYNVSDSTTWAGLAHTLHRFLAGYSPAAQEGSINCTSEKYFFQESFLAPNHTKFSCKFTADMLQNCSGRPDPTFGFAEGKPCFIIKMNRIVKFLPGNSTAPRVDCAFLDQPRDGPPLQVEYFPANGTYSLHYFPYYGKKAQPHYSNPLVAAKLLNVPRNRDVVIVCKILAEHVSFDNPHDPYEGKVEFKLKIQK

With `CC(C)CCC(/C=C/c1ccc(Cl)cc1)=N\OCCCN1CCCCC1` [Example 9, 1-(4-Chlorophenyl)-6-methyl-3-(E)-[3-(N-piperidinyl)-propoxyimino]-1-(E)-heptene], the IC50 against H^+ /K^+ -ATP-ase worked out at 12 µM; in the data set with rat's parietal cell it was 0.05 µM. Further, the “Inhibition of the conditioned reflex (%)” value in the data set on Male Wistar rats [1] is 16%. In addition, the ED50 in the data set on gastric-acid secretion was 107 mg/kg; in the data set on mice it was greater than 100 mg/kg; in data set [5] it was 5.9 mg/kg. Besides, the LD50 at 336 h was greater than 1000 mg/kg in data set [2] and 160 mg/kg in [3]. The minimal effective dose with Male Wistar rats [4] was greater than 30 mg/kg. For the same compound, the “Ratio of acid-secretion inhibition and erosion inhibition” value in data set [5] is 18.1.

On to `CC(C)CC(/C=C/c1ccccc1)=N\OCCN1CCCCC1` [Example 10, 1-Phenyl-5-methyl-3-(E)-[2-(N-piperidinyl)-ethoxyimino]-1-(E)-hexene], for which the results for the minimal effective dose (in [6]; in the data set with Male Wistar rats [4]) were 10 mg/kg and 0.1 mg/kg, respectively. In addition, in the data set on Male Wistar rats [1], the “Inhibition of the conditioned reflex (%)” value amounted to 13%. The ED50 with mice was greater than 100 mg/kg. Besides, in the data set with Male Wistar rats [4], the “anxiolytic activity (in words)” value was “the most active members in the structural group”.

As for `CC(C)CC(/C=C/c1ccccc1)=N\OCCN(C)C` [Example 17, 1-Phenyl-5-methyl-3-(E)-[2-(dimethylamino)-ethoxyimino]-1-(E)-hexene], the IC50 against H^+ /K^+ -ATP-ase was greater than 30 µM. The “Inhibition of the conditioned reflex (%)” value in the data set with Male Wistar rats [1] came to 40%. The “antipsychotic / conditioned-reflex-inhibiting activity (in words)” value with Male Wistar rats [1] (in vivo) is “slight conditioned-reflex-inhibiting activity”. Also, the ED50 with gastric-acid secretion is 166 mg/kg; with mice, greater than 100 mg/kg; in data set [5] it was 2.7 mg/kg. Moreover, the LD50 at 336 h in data set [2] is greater than 1000 mg/kg; in data set [3], 100 to 300 mg/kg. In the data set on Male Wistar rats [4], the minimal effective dose was determined as 30 mg/kg. The “Ratio of acid-secretion inhibition and erosion inhibition” value in [5] was 61.4.

With `CCCC(/C=C/c1ccccc1)=N\OCCCN(C)C` [Example 21, 1-Phenyl-3-(E)-[3-(dimethylamino)-propoxyimino]-1-(E)-hexene], the minimal effective dose in data set [6] is 1 mg/kg. Moreover, the “Inhibition of the conditioned reflex (%)” value in the data set with Male Wistar rats [1] turned out to be 7%. The ED50 in the data set with mice is greater than 100 mg/kg. Further, in the data set on Male Wistar rats [4], the “anxiolytic activity (in words)” value is reported as “the most active members in the structural group” and the minimal effective dose was determined as 0.03 mg/kg.

In turn, `CC(C)CCC(/C=C/c1ccc(Cl)cc1)=N\OCCCN1CCCC1` [Example 41, 1-(4-Chlorophenyl)-6-methyl-3-(E)-[3-(N-pyrrolidinyl)-propoxyimino]-1-(E)-heptene] showed an IC50 against H^+ /K^+ -ATP-ase of 9 µM. For the same compound, the values for the ED50 (in the data set with gastric-acid secretion; in data set [5]) were less than 100 mg/kg and 2 mg/kg, respectively. In addition, the LD50 at 336 h in data set [2] was greater than 1000 mg/kg; in [3], 30 to 100 mg/kg. In addition, the “Ratio of acid-secretion inhibition and erosion inhibition” value in data set [5] is less than 50.

With `CCCC(C)(COC(N)=O)COC(N)=O` [Meprobamate, reference compound], the minimal effective dose in data set [6] was greater than 10 mg/kg; in the data set on Male Wistar rats [4], 25 mg/kg.

The term LD50 denotes the dose expected to kill half of the subjects tested. Higher therefore signals lower toxicity.
